Among the test systems are MDA-MB-435; K562; CCRF-CEM; KM12; HCT-116; SK-OV-3; SF-268; MDA-MB-231; OVCAR-5; A498; COLO 205; NCI-H226; 786-0; SK-MEL-5; SR; OVCAR-8; M14; SNB-75; NCI/ADR-RES.
Holding throughout (test): growth of human tumour cells (NCI), 48 h

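Test compounds were applied to cells in 96-well plates for 48 hours at 5 doses. GI50: concentration for 50% inhibition of growth.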 Active and inactive are the calls of the source. Cut-off read from the data, not from the text of the source: active = GI50 up to about 1.1 µM and inactive = higher. Bounds are passed on as bounds.

As for `CC(=O)O/C=C1/C[C@H]2[C@@H]3CCC4CC(C(C)=O)CC[C@]4(C)[C@H]3CC[C@]2(C)C1=O` (stereo partly specified), the GI50 is > 100 µM (inactive) with MDA-MB-435; 36.4 µM (inactive) in the test on K562; 29.1 µM (inactive) in the test on CCRF-CEM; 33.7 µM (inactive) with KM12; 29.6 µM (inactive) in the test on HCT-116; > 100 µM (inactive) in the test on SK-OV-3. In addition, the GI50 was > 100 µM (inactive) in the test on SF-268; > 100 µM (inactive) with MDA-MB-231; > 100 µM (inactive) in the test with OVCAR-5; > 100 µM (inactive) in the test on A498; > 10 µM (inactive) with COLO 205; > 100 µM (inactive) with NCI-H226. The GI50 in the test on 786-0 is 68.2 µM (inactive); in the test on SK-MEL-5, 47.2 µM (inactive); in the test on SR, 44.1 µM (inactive).

Consider `CS(=O)(=O)Sc1ccc(Cl)cc1`, for which the GI50 in the test on OVCAR-8 was 7.87 µM (inactive); in the test on M14, 12.8 µM (inactive); in the test with K562 it was 10.2 µM (inactive); in the test on CCRF-CEM, 2.54 µM (inactive); in the test on SNB-75, 3.21 µM (inactive); with KM12 it was 7.19 µM (inactive). Moreover, the GI50 was 5.7 µM (inactive) with HCT-116; 23.5 µM (inactive) with SK-OV-3; 1.63 µM (inactive) in the test on SF-268; 17.6 µM (inactive) with OVCAR-5; 2.38 µM (inactive) in the test on A498; 3.52 µM (inactive) in the test with COLO 205. Also, the GI50 in the test with NCI-H226 is 7.48 µM (inactive); in the test with 786-0 it was 6.32 µM (inactive); in the test on SK-MEL-5 it was 7.83 µM (inactive); in the test on SR, 3.59 µM (inactive).

For `CN(C)c1nc(Oc2nc(N(C)C)nc(N(C)C)n2)nc(N(C)C)n1`, the GI50 with OVCAR-8 is 93.8 µM (inactive); in the test on M14, > 100 µM (inactive); in the test with K562, 59.2 µM (inactive); in the test with CCRF-CEM, > 100 µM (inactive); in the test with SNB-75, 35.9 µM (inactive); in the test with KM12 it was 62.5 µM (inactive). Further, the GI50 in the test on HCT-116 is > 100 µM (inactive); in the test on SK-OV-3 it was > 100 µM (inactive); in the test with SF-268 it was > 100 µM (inactive); in the test with OVCAR-5, > 100 µM (inactive); in the test on A498, > 100 µM (inactive); in the test on COLO 205, 22.1 µM (inactive). The GI50 with NCI-H226, in the test with 786-0, with SK-MEL-5 and with SR was > 100 µM (inactive) throughout.

For `CCOC(=O)c1ccc(N2C(=S)N(C(=O)c3ccccc3)C(=N/c3ccccc3)/C2=N\c2ccccc2)cc1`, the GI50 is 24.7 µM (inactive) in the test on OVCAR-8; 51.5 µM (inactive) in the test with MDA-MB-435; > 100 µM (inactive) in the test with NCI/ADR-RES; 27.2 µM (inactive) in the test on M14; > 100 µM (inactive) with K562; 22.7 µM (inactive) in the test on SNB-75. The GI50 in the test on KM12 is > 100 µM (inactive); in the test with SK-OV-3 it was 32 µM (inactive); in the test with SF-268, > 100 µM (inactive); in the test on OVCAR-5, > 100 µM (inactive); in the test with NCI-H226, 22.9 µM (inactive); in the test on 786-0 it was 42.2 µM (inactive). For the same compound, the GI50 with SK-MEL-5 is 50 µM (inactive); in the test on SR it was > 100 µM (inactive).

With `CC(C)S(=O)(=O)n1c(N)nc2ccc(/C(=N/O)c3ccccc3)cc21` [ENVIROXIME], the GI50 with OVCAR-8 is 30.3 µM (inactive); with M14, 17.9 µM (inactive); with K562, 27.2 µM (inactive); in the test with CCRF-CEM, 10.6 µM (inactive); in the test on SNB-75 it was 3.26 µM (inactive); in the test on KM12 it was 20.6 µM (inactive). Further, the GI50 in the test on HCT-116 was 18.6 µM (inactive); in the test on SK-OV-3, 22.4 µM (inactive); in the test with SF-268, 27.7 µM (inactive); in the test on OVCAR-5, 21 µM (inactive); with A498, 8.32 µM (inactive); in the test with COLO 205, 17.5 µM (inactive). Moreover, the GI50 in the test on NCI-H226 is 4.63 µM (inactive); in the test on 786-0 it was 40.3 µM (inactive); in the test on SR, 0.223 µM (active).

With `C/C(=N\NC(=O)CC#N)c1c(O)cc(C)oc1=O`, the GI50 with OVCAR-8, in the test on M14, with K562, in the test with CCRF-CEM, with SNB-75 and in the test with KM12 was > 100 µM (inactive) each time. Moreover, the GI50 with HCT-116, with SK-OV-3, in the test on SF-268, in the test with A498, in the test with NCI-H226 and with 786-0 was > 100 µM (inactive) in each case. The GI50 with SK-MEL-5 and in the test on SR was > 100 µM (inactive) throughout.

On to `Clc1ccc(/N=N/c2nc3ccccc3nc2/N=N/c2ccc(Cl)cc2Cl)c(Cl)c1`, for which the GI50 in the test with OVCAR-8 is > 100 µM (inactive); in the test with K562, 44.6 µM (inactive); in the test on SNB-75, 22.9 µM (inactive); with KM12 it was > 100 µM (inactive); with HCT-116, > 100 µM (inactive); in the test on SF-268 it was > 100 µM (inactive). Besides, the GI50 is > 100 µM (inactive) in the test with A498; > 100 µM (inactive) in the test on COLO 205; > 100 µM (inactive) with NCI-H226; 85.5 µM (inactive) with 786-0; 33.5 µM (inactive) in the test on SR.

Take `O=C(O)C12C3CCCC1C2CC3` (stereo unspecified): the GI50 in the test on OVCAR-8, with M14, with K562, in the test on CCRF-CEM, in the test with SNB-75 and in the test with KM12 was > 100 µM (inactive) throughout. Further, the GI50 in the test with HCT-116, in the test on SK-OV-3, in the test with SF-268, in the test with OVCAR-5, with A498 and with COLO 205 was > 100 µM (inactive) each time. For the same compound, the GI50 with NCI-H226, in the test on 786-0, in the test on SK-MEL-5 and in the test on SR was > 100 µM (inactive) each time.

`CCCCCCCCCCCc1c(O)c(=O)c2c(oc3c(=O)c(CCCCCCCCCCC)c(O)c(=O)c3n2-c2ccc(N(C)C)cc2)c1=O`: the GI50 is 23.3 µM (inactive) with OVCAR-8; 16.3 µM (inactive) in the test on M14; 52.8 µM (inactive) in the test with K562; 26 µM (inactive) with CCRF-CEM; 23.7 µM (inactive) in the test on SNB-75; 12.9 µM (inactive) in the test on KM12. In addition, the GI50 in the test with HCT-116 is 17.6 µM (inactive); in the test on SK-OV-3 it was 19.7 µM (inactive); with SF-268, 22.2 µM (inactive); in the test on OVCAR-5 it was 23.8 µM (inactive); with A498, 20.7 µM (inactive); in the test with COLO 205, 20 µM (inactive). Besides, the GI50 in the test on NCI-H226 was 19.3 µM (inactive); in the test with 786-0, 17.5 µM (inactive); in the test with SK-MEL-5 it was 18.7 µM (inactive); with SR, 65.2 µM (inactive).

Regarding `CC(O)C1OC(n2ccc(=O)[nH]c2=O)CC1n1cncn1` (stereo unspecified), the GI50 with OVCAR-8, in the test with M14, in the test with K562, with CCRF-CEM, in the test with KM12 and in the test with HCT-116 was > 100 µM (inactive) throughout. For the same compound, the GI50 with SK-OV-3 is > 100 µM (inactive); in the test on SF-268, > 100 µM (inactive); with OVCAR-5, > 100 µM (inactive); in the test on A498 it was > 100 µM (inactive); with COLO 205, > 100 µM (inactive); in the test on NCI-H226, 11.8 µM (inactive). Further, the GI50 in the test on 786-0, in the test with SK-MEL-5 and in the test with SR was > 100 µM (inactive) each time.

In the case of `C/C(=N\NS(=O)(=O)c1ccc(C)cc1)C(CN1CCCCC1)C(c1ccccc1)c1c(O)c2ccccc2oc1=O` (stereo unspecified), the GI50 with OVCAR-8, with M14, in the test on K562, in the test on CCRF-CEM, with SNB-75 and in the test with KM12 was > 100 µM (inactive) in each case. In addition, the GI50 with HCT-116, with SK-OV-3, with SF-268, in the test on OVCAR-5, in the test with A498 and with COLO 205 was > 100 µM (inactive) each time. In addition, the GI50 in the test with NCI-H226 was > 100 µM (inactive); in the test on 786-0, > 100 µM (inactive); in the test on SK-MEL-5 it was > 100 µM (inactive); with SR it was 57 µM (inactive).

Regarding `COCN/C(N)=N/C#N`, the GI50 with OVCAR-8, in the test on M14, with K562, with CCRF-CEM, in the test with SNB-75 and in the test on KM12 was > 100 µM (inactive) in each case. Also, the GI50 in the test with HCT-116 was 75 µM (inactive); with SK-OV-3, > 100 µM (inactive); in the test on SF-268 it was 85.9 µM (inactive); in the test with OVCAR-5, > 100 µM (inactive); in the test with A498 it was > 100 µM (inactive); with COLO 205, 21.7 µM (inactive). In addition, the GI50 with NCI-H226 was > 100 µM (inactive); with 786-0, 80.4 µM (inactive); in the test on SK-MEL-5, > 100 µM (inactive); with SR, 15.1 µM (inactive).

Turning to `Nc1nc(SCC(=O)c2ccccc2)c2[nH]cnc2n1`, the GI50 was > 100 µM (inactive) in the test on OVCAR-8; > 100 µM (inactive) with M14; > 100 µM (inactive) in the test on K562; 51.6 µM (inactive) in the test with CCRF-CEM; 21.9 µM (inactive) in the test on SNB-75; > 100 µM (inactive) with KM12. The GI50 in the test with HCT-116, with SK-OV-3, in the test on SF-268, in the test on OVCAR-5, with A498 and in the test with COLO 205 was > 100 µM (inactive) in each case. Moreover, the GI50 with NCI-H226, in the test on 786-0, in the test with SK-MEL-5 and with SR was > 100 µM (inactive) each time.

The record behind these values is ChEMBL document CHEMBL1201862, “PubChem BioAssay data set” (2004).
